US4518606A, “Pharmaceutical compositions” (Beecham Group Limited, priority 1979, dated 1985)

What was measured:
Format in all cases: in vivo
[1] = test system: rats; test: acute toxicity, intramuscular, rats; details: 750 mg/kg in 3% solution (25 ml/kg)
Protocol: (§1) No mortality is observed in mice or rats treated at the rate of 750 mg/kg of benzyl alcohol in 3% solution (viz 25 ml/kg of solution) by the intramuscular route.

[2] = test system: mice; test: acute toxicity, intramuscular, mice; details: 750 mg/kg in 3% solution (25 ml/kg)
Protocol: as §1

[3] = test system: rats; test: sub-acute toxicity, intramuscular, 2 weeks, male and female rats; details: 150 mg/kg (5 ml/kg of 3% solution)
Protocol: Over a period of 2 weeks, 10 male rats and female rats receive 150 mg/kg of benzyl alcohol, that is to say 5 ml/kg of 3% aqueous solution by the intramuscular route. […] Within the context of the anatomopathological examination, the liver, kidneys, spleen, lungs, suprarenals, testicles and ovaries are normal.

OCc1ccccc1 [benzyl alcohol]
mortality [1]: No mortality | mortality [2]: No mortality | abnormal symptoms [3]: No abnormal symptom appears | anatomopathological examination (liver, kidneys, spleen, lungs, suprarenals, testicles and ovaries) [3]: normal | haematological variations [3]: within the limits of physiological variations | variations in blood and urine biochemistry [3]: within the limits of physiological variations | variations in weight [3]: within the limits of physiological variations
